According to article PMC7821884, “BRAF inhibition protects against hearing loss in mice” (Science Advances, 2020):

Key:
HEI-OC1 cell line = experiment: Caspase-Glo 3/7 activity screen for protection from cisplatin-induced cell death; assay type: cell-based, mouse; settings: HEI-OC1, 50 μM cisplatin, 22 hours
Protocol: An unbiased screen for compounds protective against cisplatin ototoxicity ([12], [13]) was conducted using the immortalized inner ear cell line HEI-OC1 derived from mouse cochlea ([14]). One hundred sixty-two unique small-molecule kinase-specific inhibitors were screened in dose-response mode for protection from 50 μM cisplatin. A caspase-3/7 activity assay was selected to measure apoptosis using a protocol that quantifies a luminescent product derived from the cleavage of caspase-3/7 substrate (Caspase-Glo 3/7 reagent). One hundred percent luminescence was defined by cells treated with cisplatin alone, and 0% was defined by untreated cells (Fig. 1A, fig. S1, table S1, and dataset in the Supplementary Materials).
In these screens, caspase-3 cleavage was chosen as the end point indicating cisplatin-induced apoptosis, because it allowed the inhibition of cell death to be monitored at the level of any molecular target upstream of caspase-3 cleavage in the HEI-OC1 cell line. Cells were plated at a previously optimized concentration of 1600 cells per well in medium without γ-interferon to limit proliferation and tested against 50 μM cisplatin based on a previous dose–response curve. Tested compounds were dissolved in DMSO before addition to medium with a final DMSO concentration of <0.5%. The screens are described in detail in our previous publications ([12], [13]). […]

[1] = system: P3-P4 FVB mouse cochlear explants; set-up: method as in PMID 29514916, PMID 9303151; settings: identical P3 FVB explant model; read-out: IC50, protection from cisplatin in explants; cited from earlier work
[2] = set-up: method as in PMID 25894725, PMID 26655654; settings: cited from earlier work
[3] = cited from earlier work
[4] = set-up: method as in PMID 25665007, PMID 25058905, PMID 23044998; settings: cisplatin chemotherapy; cited from earlier work
[5] = system: P3-P4 FVB mouse cochlear explants; settings: 150 μM, 24 hours
Protocol: Mouse cochlear explants are widely recognized as an alternative to in vivo cochlear models and pragmatic for focused drug screening ([37]). […] Medium-alone, drug-alone, and cisplatin-alone treatments were used as controls.
P3-P4 FVB mouse cochleae were dissected and maintained in culture on filter inserts in six-well plates with 1 ml of growth medium DMEM (12430-054,Gibco Life Technologies), with 1% FBS (16000-044, Gibco Life Technologies), B-27 supplement (200 μl/500 ml; 17504-44, Gibco Life Technologies), N-2 supplement (100 μl/500 ml; 17502-048, Gibco Life Technologies), and ampicillin (50 μg/ml; A5354-10ML, Sigma-Aldrich) both inside and outside the filter (Millicell, PICM03050, Millipore). […] Cochleae were imaged by confocal microscopy, two 160-μm regions from middle turns were photographed, and the number of intact HCs was counted. Two to five independent cochleae were tested for each experimental condition.

P42 FVB mice = experiment: Cisplatin-induced hearing loss in adult mice (ABR, OHC counts, pERK); settings: cisplatin 30 mg/kg i.p., alone or combined with dabrafenib
Protocol: As described in Fig. 4A, baseline auditory brainstem response (ABR) thresholds for P42 FVB mice were established 1 week before experimental procedures. […] Animals were allowed 21 days after cisplatin injection to recover, and final ABR thresholds were recorded.
Ten milligrams of cisplatin (479306, Sigma-Aldrich) powder was dissolved in 10 ml of sterile saline (0.9% NaCl) at 37°C for 40 to 60 min. Cisplatin was administered to FVB mice at 30 mg/kg via intraperitoneal injection. One day before cisplatin injection, mice received 1 ml of saline by subcutaneous injection. To ameliorate dehydration after cisplatin injection, 1 ml of warm saline was injected twice per day for at least 7 days or until body weight started to recover. The cages of cisplatin-treated mice were placed on the heating pad for at least 7 days or until body weight began to recover. Fresh mush food was daily given for at least 7 days.
Compounds were dissolved in a mixture of 10% DMSO, 5% Tween 80 (P1754, Sigma-Aldrich), 40% PEG-E-300 (91462-1KG, Sigma-Aldrich), and 45% 0.9% saline.
ABR in mice was measured for left ears as described previously with minor modifications ([13], [34]). In brief, ABR waveforms were recorded in a sound booth (Industrial Acoustic Company) by using subdermal needles positioned in the skull, below the pinna, and at the base of the tail, and the responses were fed into a low-impedance Medusa digital biological amplifier system (RA4L; TDT; 20-dB gain). At each frequency, the stimulus intensity was reduced from 90 to 0 dB in 10-dB steps to determine the threshold decibel SPL when the electrical response was just above the noise floor. ABR waveforms were averaged in response to 500 tone bursts. The recorded signals were filtered by a band-pass filter from 300 Hz to 3 kHz. Pretreatment ABR recordings of adult FVB mice (aged 6 weeks) were acquired 1 week before all treatments, and posttreatment ABR measurements were recorded 21 days after cisplatin treatment or 14 days after noise exposure. ABR threshold was determined by the presence of any of three or more of the five waveform peaks. […] All thresholds and shifts were determined independently by two experimenters for each mouse. Individual ABR wave 1 amplitudes were measured as the difference between the positive peak and the following negative trough.
Cochleae from adult mice were prepared and examined as described previously ([85], [86]). All images were acquired with a confocal microscope (LSM 700 or 710, Zeiss). Samples were stained with phalloidin (A12379 or A12380, Invitrogen) or with antibodies for other markers. The following primary antibodies were used: anti–myosin VI (1:400; 25-6791; Proteus Bioscience), anti–myosin VIIa ([…];138-1-s, Developmental Studies Hybridoma Bank), anti-Tuj1 (1:250; 801201, BioLegend), anti-pERK (1:400; 9101S, Cell Signaling Technology), or anti-Ctbp2 (1:500; 612044, BD Transduction). Anti-rabbit Alexa Fluor 488 (1:400; A11034) and anti-mouse Alexa Fluor 647 (1:400; A31571) secondary antibodies were purchased from Invitrogen. ProLong gold antifade reagent with 4′,6-diamidino-2-phenylindole (P36941, Invitrogen) was used to counterstain nuclei.

Compound `Cc1ccc(C(=O)Cn2c3c(sc2=N)CCCC3)cc1` [Pifithrin-α] has an IC50 (HEI-OC1 cell line) of 7.7 µM.

For `O=C1Cc2c([nH]c3ccc(Br)cc23)-c2ccccc2N1` [kenpaullone], the IC50 [1] is given as 0.2 µM.

In the case of `C[C@@H]1C[C@H]2[C@@H]3CCC4=CC(=O)C=C[C@]4(C)[C@@]3(F)[C@@H](O)C[C@]2(C)[C@@]1(O)C(=O)CO` [dexamethasone], the “effectiveness in treating noise ototoxicity” value [2] is listed as “only partially effective” and the IC50 [1] is listed as greater than 0.25 µM.

In the case of `O=S([O-])([O-])=S.[Na+].[Na+]` [STS, sodium thiosulfate], the “lowering of incidence of hearing loss” value ([3]; children with localized standard-risk hepatoblastoma, 6 hours after cisplatin chemotherapy) is given as 48% and the “survival of treated patients with disseminated tumors” value [3] is given as “lowered survival rate”.

For `CSCC[C@@H](N)C(=O)O` [D-methionine], the IC50 [1] is given as 98.4 µM.

For `N.N.[Cl][Pt][Cl]` [cisplatin], the “patients with cancer with hearing loss” value [4] is given as 40 to 60%, the “OHCs that died with cisplatin” value [5] is given as roughly 40% and the “survival rate of mice” value (P42 FVB mice) is given as 50%.

In the case of `O=c1c2ccccc2[se]n1-c1ccccc1` [ebselen], the IC50 [1] is listed as 10.8 µM.
